According to the NIST ThermoML archive (doi:10.1021/acs.jced.8b01233):
Values joined by “and” are separate entries in the source; they are usually repeats but may differ in a detail not shown here. Identical values can stand only once. Numbers after ± are expanded uncertainties.

Details: for viscosity / mass density / speed of sound: 102 kPa, Liquid; for viscosity: Concentric cylinders viscometry; for mass density: Vibrating tube method; for speed of sound: Frequency=3 MHz, Single path-length method; for surface tension liquid-gas: Pendant drop shape

CC(CC(C)(C)C)CC(C)(C)CC(C)(C)C (stereo unspecified) [2,2,4,4,6,8,8-heptamethylnonane]
Details | mass density | speed of sound [m/s] | surface tension liquid-gas [mN/m] | viscosity [mPa·s]
253.15 K | 811.5 ± 2 kg/m3 and 811.4 ± 2 kg/m3 | – | – | 14.1 ± 0.1
288.15 K | 787.84 ± 0.52 kg/m3 and 787.76 ± 0.52 kg/m3 | 1305.1 ± 1 | – | –
293.15 K | 784.51 ± 0.52 kg/m3 and 784.4 ± 0.52 kg/m3 | 1286 ± 1 | – | 3.73 ± 0.03
295 K | – | – | 24.2 ± 0.3 | –
298.15 K | 781.15 ± 0.52 kg/m3 and 781.05 ± 0.52 kg/m3 | 1267.1 ± 1 | – | –
303.15 K | 777.8 ± 0.52 kg/m3 and 777.7 ± 0.52 kg/m3 | 1248.1 ± 1 | – | 2.96 ± 0.03
313.15 K | 771.09 ± 0.52 kg/m3 and 770.99 ± 0.52 kg/m3 | 1211.8 ± 1 | – | 2.4 ± 0.02
323.15 K | 764.36 ± 0.52 kg/m3 and 764.27 ± 0.52 kg/m3 | 1176.1 ± 1 | – | 1.98 ± 0.02
333.15 K | 757.62 ± 0.52 kg/m3 and 757.53 ± 0.52 kg/m3 | 1141.3 ± 1 | – | 1.66 ± 0.02

CCCCc1ccccc1 [butylbenzene]
Details | mass density [kg/m3] | speed of sound [m/s] | surface tension liquid-gas [mN/m] | viscosity [mPa·s]
253.15 K | 892.8 ± 2 | – | – | 2.36 ± 0.06
288.15 K | 864.7 ± 0.31 | 1373.7 ± 0.8 | – | –
293.15 K | 860.69 ± 0.31 | 1353.8 ± 0.8 | – | 1.04 ± 0.02
295 K | – | – | 28.8 ± 0.3 | –
298.15 K | 856.68 ± 0.31 | 1334.1 ± 0.8 | – | –
303.15 K | 852.65 ± 0.31 | 1314.5 ± 0.8 | – | 0.891 ± 0.021
313.15 K | 844.6 ± 0.31 | 1276.1 ± 0.8 | – | 0.773 ± 0.021
323.15 K | 836.51 ± 0.31 | 1238.4 ± 0.8 | – | 0.679 ± 0.021
333.15 K | 828.38 ± 0.31 | 1201.7 ± 0.8 | – | 0.601 ± 0.021

CCCCC1CCCCC1 [butylcyclohexane]
Details | mass density [kg/m3] | speed of sound [m/s] | surface tension liquid-gas [mN/m] | viscosity [mPa·s]
253.15 K | 829.9 ± 2 | – | – | 3.08 ± 0.06
288.15 K | 803.07 ± 0.73 | 1348.8 ± 1.2 | – | –
293.15 K | 799.33 ± 0.73 | 1328.3 ± 1.2 | – | 1.32 ± 0.02
294.5 K | – | – | 26.6 ± 0.4 | –
298.15 K | 795.57 ± 0.73 | 1308.1 ± 1.2 | – | –
303.15 K | 791.81 ± 0.73 | 1288 ± 1.2 | – | 1.11 ± 0.02
313.15 K | 784.27 ± 0.73 | 1248.6 ± 1.2 | – | 0.95 ± 0.021
323.15 K | 776.71 ± 0.73 | 1210.1 ± 1.2 | – | 0.826 ± 0.021
333.15 K | 769.1 ± 0.73 | 1172.6 ± 1.2 | – | 0.729 ± 0.021

CCCCCCCCCCCC [dodecane]
Details | mass density [kg/m3] | speed of sound [m/s] | surface tension liquid-gas [mN/m] | viscosity [mPa·s]
288.15 K | 752.41 ± 0.53 | 1317.4 ± 1 | – | –
293.15 K | 748.79 ± 0.53 | 1297.9 ± 1 | – | 1.51 ± 0.02
295 K | – | – | 24.9 ± 0.3 | –
298.15 K | 745.16 ± 0.53 | 1278.7 ± 1 | – | –
303.15 K | 741.53 ± 0.53 | 1259.5 ± 1 | – | 1.25 ± 0.02
313.15 K | 734.25 ± 0.53 | 1221.7 ± 1 | – | 1.06 ± 0.02
323.15 K | 726.94 ± 0.53 | 1184.5 ± 1 | – | 0.916 ± 0.021
333.15 K | 719.59 ± 0.53 | 1148.2 ± 1 | – | 0.798 ± 0.021
